Results as given in PMC9599641, “TNP Analogues Inhibit the Virulence Promoting IP3-4 Kinase Arg1 in the Fungal Pathogen Cryptococcus neoformans” (Biomolecules, 2022).

Key:
CnArg1 = CnArg1 (Cryptococcus neoformans var. grubii, UniProt J9W3G0); assay: Surface plasmon resonance (SPR) binding to immobilised CnArg1; settings: 6.25–200 µM, 10 °C, steady-state affinity, mean ± SEM
Experimental: SPR was carried out on a Biacore T200 (Cytiva, Marlborough, MA, USA). A streptavidin surface was prepared by amine coupling streptavidin to a CM5 chip using standard procedures in 20 mM HEPES, 150 mM NaCl pH 7.5 at 37 °C. Briefly, the surface was activated by injection of 1:1 NHS:EDC (N-ethyl-N’-(3-(dimethylamino)propyl)carbodiimide/N-hydroxysuccinimide) followed by a 7-min injection of 100 µg/mL streptavidin in 10 mM sodium acetate (pH 4.5) at a flow rate of 2 µL/min. Unreacted groups on the surface were blocked by injection of 1 M ethanolamine (pH 8.0). Purified recombinant CnArg1 was N-terminally biotinylated and immobilised to a level of ~4000 RU onto the streptavidin surface at 25 °C in 20 mM HEPES, 200 mM NaCl, 5 mM MgCl2 (pH 7.5) at a flow rate of 2 µL/min.
For analysis, compounds were prepared to 50 mM in 100% DMSO and diluted to the desired concentration in SPR running buffer; 20 mM HEPES (pH 7.5), 200 mM NaCl, 5 mM MgCl2, 5% DMSO. Analysis was carried out using multi-cycle kinetics over a compound concentration range of 6.25–200 µM in running buffer at 10 °C, with an association time of 60 s and a dissociation time of 120 s. Data were reference subtracted, and a solvent correction applied. Analysis was carried out using Biacore T200 Evaluation Software and all data fit to a 1:1 Langmuir binding isotherm.

HsIPMK = HsIPMK (Homo sapiens, UniProt Q8NFU5); assay: Kinase-Glo enzyme inhibition assay, recombinant HsIPMK; also: 6 ng/µL enzyme; assay type: biochemical; set-up: GST (N, cleaved yes); made in house; host or cells: E. coli BL21 (DE3); plasmid made by GenScript
Experimental: (§1) The 2,6-disubstituted purine compounds are ATP-competitive IPK inhibitors. […] The amount of IP3 and kinase used for each recombinant enzyme was determined following the manufacturer’s instructions, and this concentration was used to assess the inhibitory properties of TNP analogues against each of the recombinant enzymes.
(§2) The analogues were dissolved in DMSO. For the assay, the inhibitors were added to the reaction mixture to achieve a final concentration of 50 µM in 5% DMSO (1:20 dilution). To achieve inhibitor concentrations lower than 50 µM in the assay, the inhibitor stock was first serially diluted two-fold in DMSO and added to the reaction mixture, to achieve concentrations ranging between 0.8 μM and 50 µM in 5% DMSO. Once all analogues and their dilution series had been added, the reaction was started by adding an optimal amount of recombinant IP3-4K enzyme. The reaction was stopped after 10-min incubation at room temperature by adding a 50 µL of Kinase-Glo® reagent. The mixture was incubated at room temperature in the dark for 10–15 min. Luminescence (RLU) was measured using a SpectraMax iD5 and an integration time of 0.5 s. Percent enzyme activity was defined as (RLUnegative − RLUsample)/(RLUnegative − RLUpositive) × 100. ‘Positive’ refers to 100% enzyme activity (no inhibitor used as the positive control), while ‘negative’ refers to 0% enzyme activity (no enzyme used as the negative control).
(§3) Next, we determined the inhibitory properties of TNP. TNP is an ATP-competitive inhibitor [34]. […] IP3 and enzyme concentrations were also optimised following the manufacturer’s instructions. […] This optimal amount of IP3 was then used to test varying concentrations of the kinase ranging from 0 to 20 ng/µL. The amount of kinase that produced luminescence values in the linear range of the kinase titration curve was deemed to be the optimal kinase amount.

[1] = molecular target: CnArg1 (IP3-4K from C. neoformans) (Cryptococcus neoformans var. grubii, UniProt J9W3G0); assay: Kinase-Glo enzyme inhibition assay, recombinant CnArg1; assay type: biochemical; settings: 10 µM ATP, 50 µM IP3, 2.5 ng/µL enzyme, 10 min, room temperature, 5% DMSO; mean ± SEM
Experimental: as §1, §2, §3

[2] = test system: CnArg1 (IP3-4K from C. neoformans); assay: as above; assay type: biochemical; settings: selectivity, ratio higher than 1 = more selective for CnArg1
Experimental: as §1, §2, §3

CnArg1 (IP3-4K from C. neoformans) (Cryptococcus neoformans var. grubii, UniProt J9W3G0), sequence (J9W3G0 entry or part of it): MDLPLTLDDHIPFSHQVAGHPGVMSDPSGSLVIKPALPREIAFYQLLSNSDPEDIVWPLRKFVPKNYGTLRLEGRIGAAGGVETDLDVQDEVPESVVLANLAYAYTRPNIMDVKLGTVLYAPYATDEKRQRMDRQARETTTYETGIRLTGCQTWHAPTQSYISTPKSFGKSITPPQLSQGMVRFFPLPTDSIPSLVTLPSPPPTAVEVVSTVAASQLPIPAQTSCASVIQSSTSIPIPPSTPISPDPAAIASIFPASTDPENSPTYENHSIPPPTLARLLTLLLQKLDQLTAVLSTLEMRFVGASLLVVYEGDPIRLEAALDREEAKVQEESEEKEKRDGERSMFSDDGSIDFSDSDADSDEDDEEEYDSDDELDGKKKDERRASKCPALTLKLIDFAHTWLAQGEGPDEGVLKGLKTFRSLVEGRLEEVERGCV
CnArg1, sequence (J9W3G0 entry or part of it): as above
HsIPMK, sequence (Q8NFU5 whole entry): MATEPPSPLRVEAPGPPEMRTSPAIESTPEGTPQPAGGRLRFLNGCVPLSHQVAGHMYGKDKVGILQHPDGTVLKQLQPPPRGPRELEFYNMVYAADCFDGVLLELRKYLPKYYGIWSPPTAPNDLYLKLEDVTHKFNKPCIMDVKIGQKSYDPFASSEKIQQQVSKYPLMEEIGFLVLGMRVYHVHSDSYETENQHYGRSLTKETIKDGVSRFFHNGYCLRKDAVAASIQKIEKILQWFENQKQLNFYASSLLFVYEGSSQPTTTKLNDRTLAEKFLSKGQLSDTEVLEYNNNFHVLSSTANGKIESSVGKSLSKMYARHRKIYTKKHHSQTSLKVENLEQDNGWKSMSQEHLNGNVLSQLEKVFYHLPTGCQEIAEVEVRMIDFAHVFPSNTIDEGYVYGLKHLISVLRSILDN

COCCNc1nc(Nc2ccc(O)cc2)nc2[nH]cnc12 [Compound 37]
KD (CnArg1): No binding | IC50 (HsIPMK): 7 ± 1 µM | IC50 [1]: 17 ± 2 µM | HsIPMK/CnArg1 IC50 ratio [2]: 0.4
